This note sets out measurements from PubChem BioAssay AID256 (DTP/NCI, 2004).

This assay concerns CD2F1 mice, L1210 leukemia ip, survival T/C. Nature of the assay: NCI In Vivo Anticancer Drug Screen. Data for tumor model L1210 Leukemia (intraperitoneal) in CD2F1 (CDF1) mice. Conditions: higher = longer survival. Put shortly: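 In this screen, transplantable tumors were grown in mice given either the compound or its vehicle. Results were expressed as the treated measurement relative to the control measurement.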

Setting [1] is: endpoint: mean survival time, dose: 100.0 mg/kg/injection, schedule: Q01DX001 (ip), vehicle: saline with Tween-80.
Setting [2] is: endpoint: mean survival time, dose: 200.0 mg/kg/injection, schedule: Q01DX001 (ip), vehicle: saline with Tween-80.
Setting [3] is: endpoint: mean survival time, dose: 400.0 mg/kg/injection, schedule: Q01DX001 (ip), vehicle: saline with Tween-80.
[4] abbreviates: endpoint: mean survival time, dose: 25.0 mg/kg/injection, schedule: Q04DX003 (ip), vehicle: saline with Tween-80.
Setting [5] is: endpoint: mean survival time, dose: 50.0 mg/kg/injection, schedule: Q04DX003 (ip), vehicle: saline with Tween-80.
The mark [6] stands for this setting: endpoint: mean survival time, dose: 100.0 mg/kg/injection, schedule: Q04DX003 (ip), vehicle: saline with Tween-80.

“And” between values parts separate entries of the source, which are not always exact repeats. Identical values can stand only once. Toxic doses and inconclusive results are not listed.

As for `O=C[C@@H](CO)O[C@H](C=O)c1c[nH]c(=O)[nH]c1=O`, the T/C (endpoint: median survival time, dose: 2.5 mg/kg/injection, schedule: Q01DX009 (ip), vehicle: saline) is 118 % of control; the T/C (endpoint: median survival time, dose: 7.5 mg/kg/injection, schedule: Q04DX003 (ip), vehicle: saline) is 102 % of control; the T/C (endpoint: median survival time, dose: 12.5 mg/kg/injection, schedule: Q01DX009 (ip), vehicle: water) is 124 % of control; the T/C (endpoint: median survival time, dose: 15.0 mg/kg/injection, schedule: Q04DX003 (ip), vehicle: saline) is 102 % of control; the T/C (endpoint: median survival time, dose: 30.0 mg/kg/injection, schedule: Q04DX003 (ip), vehicle: saline) was 114 % of control; the T/C (endpoint: median survival time, dose: 40.0 mg/kg/injection, schedule: Q01DX009 (ip), vehicle: saline) was 158 % of control. For the same compound, the T/C (endpoint: median survival time, dose: 50.0 mg/kg/injection, schedule: Q01DX009 (ip), vehicle: saline) is 158 % of control; the T/C (endpoint: median survival time, dose: 54.0 mg/kg/injection, schedule: Q04DX003 (ip), vehicle: saline) is 156 % of control; the T/C (endpoint: median survival time, dose: 60.0 mg/kg/injection, schedule: Q04DX003 (ip), vehicle: saline) was 119 % of control; the T/C (endpoint: median survival time, dose: 66.7 mg/kg/injection, schedule: Q04DX003 (ip), vehicle: saline) is 151 % of control; the T/C (endpoint: median survival time, dose: 90.0 mg/kg/injection, schedule: Q04DX003 (ip), vehicle: saline) was 178 % of control; the T/C (endpoint: median survival time, dose: 100.0 mg/kg/injection, schedule: Q01DX009 (ip), vehicle: water) is 89 % of control. Moreover, the T/C (endpoint: median survival time, dose: 100.5 mg/kg/injection, schedule: Q04DX003 (ip), vehicle: saline) was 164 % of control; the T/C (endpoint: median survival time, dose: 105.0 mg/kg/injection, schedule: Q04DX003 (ip), vehicle: saline) was 229 % of control; the T/C (endpoint: median survival time, dose: 120.0 mg/kg/injection, schedule: Q04DX003 (ip), vehicle: saline) is 175 % of control and 184 % of control; the T/C (endpoint: median survival time, dose: 135.0 mg/kg/injection, schedule: Q04DX003 (ip), vehicle: saline) was 164 % of control; the T/C (endpoint: median survival time, dose: 165.0 mg/kg/injection, schedule: Q04DX003 (ip), vehicle: saline) is 625 % of control; the T/C (endpoint: median survival time, dose: 180.0 mg/kg/injection, schedule: Q04DX003 (ip), vehicle: saline) was 218 % of control and 228 % of control. The T/C (endpoint: median survival time, dose: 224.9 mg/kg/injection, schedule: Q04DX003 (ip), vehicle: saline) was 202 % of control.

Take `C=COCC(C)C` (tested in a mixture with another compound): the T/C is 93 % of control (endpoint: mean survival time, dose: 0.78 mg/kg/injection, schedule: Q01DX009 (ip), vehicle: Klucel (hydroxypropylcellulose) (HPC)); 90 % of control (endpoint: mean survival time, dose: 1.56 mg/kg/injection, schedule: Q01DX009 (ip), vehicle: Klucel (hydroxypropylcellulose) (HPC)); 86 % of control (endpoint: mean survival time, dose: 1.56 mg/kg/injection, schedule: Q01DX009 (ip), vehicle: saline with Tween-80); 109 % of control (endpoint: mean survival time, dose: 1.56 mg/kg/injection, schedule: Q04DX003 (ip), vehicle: other); 88 % of control (endpoint: mean survival time, dose: 3.12 mg/kg/injection, schedule: Q01DX009 (ip), vehicle: Klucel (hydroxypropylcellulose) (HPC)); 91 % of control (endpoint: mean survival time, dose: 3.12 mg/kg/injection, schedule: Q04DX003 (ip), vehicle: other). Also, the T/C by setting is: (endpoint: mean survival time, dose: 3.13 mg/kg/injection, schedule: Q01DX009 (ip), vehicle: saline with Tween-80) 92 % of control; (endpoint: mean survival time, dose: 4.67 mg/kg/injection, schedule: Q01DX009 (ip), vehicle: Klucel (hydroxypropylcellulose) (HPC)) 98 % of control; (endpoint: mean survival time, dose: 6.25 mg/kg/injection, schedule: Q01DX009 (ip), vehicle: saline with Tween-80) 94 % of control; (endpoint: mean survival time, dose: 7.09 mg/kg/injection, schedule: Q01DX009 (ip), vehicle: Klucel (hydroxypropylcellulose) (HPC)) 98 % of control; (endpoint: mean survival time, dose: 10.6 mg/kg/injection, schedule: Q01DX009 (ip), vehicle: Klucel (hydroxypropylcellulose) (HPC)) 93 % of control; (endpoint: mean survival time, dose: 12.5 mg/kg/injection, schedule: Q04DX003 (ip), vehicle: saline with Tween-80) 87 % of control. The T/C by setting is: (endpoint: mean survival time, dose: 15.8 mg/kg/injection, schedule: Q01DX009 (ip), vehicle: alcohol) 96 % of control; (endpoint: mean survival time, dose: 18.8 mg/kg/injection, schedule: Q01DX009 (ip), vehicle: saline) 111 % of control; (endpoint: mean survival time, dose: 24.0 mg/kg/injection, schedule: Q01DX009 (ip), vehicle: alcohol) 88 % of control; (endpoint: mean survival time, dose: 35.0 mg/kg/injection, schedule: Q01DX009 (ip), vehicle: alcohol) 97 % of control; (endpoint: mean survival time, dose: 37.5 mg/kg/injection, schedule: Q01DX009 (ip), vehicle: saline) 111 % of control; under setting [1], 113 % of control. The T/C was 109 % of control under setting [2] and 95 % of control under setting [3].

Consider `Oc1ccccc1Cn1ccnc1`, for which the T/C runs as follows: (endpoint: mean survival time, dose: 25.0 mg/kg/injection, schedule: Q01DX009 (ip), vehicle: saline) 104 % of control; (endpoint: mean survival time, dose: 50.0 mg/kg/injection, schedule: Q01DX009 (ip), vehicle: saline) 98 % of control; (endpoint: mean survival time, dose: 100.0 mg/kg/injection, schedule: Q01DX009 (ip), vehicle: saline) 98 % of control and 103 % of control.

In the case of `c1ccc(OCCC[P+](c2ccccc2)(c2ccccc2)c2ccccc2)cc1`, the T/C by setting is: (endpoint: mean survival time, dose: 10.0 mg/kg/injection, schedule: Q01DX009 (ip), vehicle: saline) 105 % of control; (endpoint: mean survival time, dose: 20.0 mg/kg/injection, schedule: Q01DX009 (ip), vehicle: saline) 95 % of control; (endpoint: mean survival time, dose: 25.0 mg/kg/injection, schedule: Q01DX009 (ip), vehicle: saline with Tween-80) 95 % of control; under setting [4], 101 % of control; (endpoint: mean survival time, dose: 50.0 mg/kg/injection, schedule: Q01DX009 (ip), vehicle: saline with Tween-80) 113 % of control; under setting [5], 92 % of control. The T/C was 111 % of control (endpoint: mean survival time, dose: 100.0 mg/kg/injection, schedule: Q01DX009 (ip), vehicle: saline with Tween-80) and 92 % of control under setting [6].

`CC(C(=O)c1ccccc1)C(N[N+](C)(C)C)c1ccccc1` (centres undefined): under setting [4], the T/C was 96 % of control.

As for `S=c1nccc[nH]1.[Pd]`, the T/C runs as follows: (endpoint: mean survival time, dose: 3.13 mg/kg/injection, schedule: Q04DX003 (ip), vehicle: distilled water + Tween-80) 97 % of control; (endpoint: mean survival time, dose: 6.25 mg/kg/injection, schedule: Q04DX003 (ip), vehicle: distilled water + Tween-80) 94 % of control; (endpoint: mean survival time, dose: 12.5 mg/kg/injection, schedule: Q04DX003 (ip), vehicle: distilled water + Tween-80) 89 % of control; (endpoint: mean survival time, dose: 25.0 mg/kg/injection, schedule: Q04DX003 (ip), vehicle: distilled water + Tween-80) 89 % of control; (endpoint: mean survival time, dose: 50.0 mg/kg/injection, schedule: Q04DX003 (ip), vehicle: distilled water + Tween-80) 89 % of control.

For the compound `O=S(=O)(O)c1cc(O)ccc1O.O=S(=O)(O)c1cc(O)ccc1O.[NH-]C1CCCCC1[NH-].[Pt+2]`, the T/C (endpoint: median survival time, dose: 6.25 mg/kg/injection, schedule: Q04DX003 (ip), vehicle: saline) was 117 % of control; the T/C (endpoint: median survival time, dose: 12.5 mg/kg/injection, schedule: Q04DX003 (ip), vehicle: saline) was 123 % of control; the T/C (endpoint: median survival time, dose: 25.0 mg/kg/injection, schedule: Q04DX003 (ip), vehicle: saline) was 162 % of control; the T/C (endpoint: median survival time, dose: 50.0 mg/kg/injection, schedule: Q04DX003 (ip), vehicle: saline) was 150 % of control and 337 % of control; the T/C (endpoint: median survival time, dose: 100.0 mg/kg/injection, schedule: Q04DX003 (ip), vehicle: saline) is 235 % of control and 375 % of control.

Turning to `C=C(OP(=O)(OC)OC)Sc1ccccc1C`, the T/C was 101 % of control (endpoint: median survival time, dose: 0.38 mg/kg/injection, schedule: Q01DX009 (ip), vehicle: Klucel (hydroxypropylcellulose) (HPC)) and 101 % of control (endpoint: median survival time, dose: 0.75 mg/kg/injection, schedule: Q01DX009 (ip), vehicle: Klucel (hydroxypropylcellulose) (HPC)).

`O=C1CSC(c2ccccc2)N1` (centres undefined): the T/C is, setting by setting: under setting [5], 102 % of control; under setting [6], 100 % of control; (endpoint: mean survival time, dose: 200.0 mg/kg/injection, schedule: Q04DX003 (ip), vehicle: saline with Tween-80) 100 % of control.

On to `COc1nc(NC2OC(CO)C(O)C(O)C2O)c(C(C)=O)c(=O)[nH]1` (centres undefined), for which the T/C runs as follows: (endpoint: median survival time, dose: 12.5 mg/kg/injection, schedule: Q01DX005 (ip), vehicle: saline) 97 % of control; (endpoint: median survival time, dose: 25.0 mg/kg/injection, schedule: Q01DX005 (ip), vehicle: saline) 98 % of control; (endpoint: median survival time, dose: 50.0 mg/kg/injection, schedule: Q01DX005 (ip), vehicle: saline) 98 % of control; (endpoint: median survival time, dose: 100.0 mg/kg/injection, schedule: Q01DX005 (ip), vehicle: saline) 97 % of control; (endpoint: median survival time, dose: 200.0 mg/kg/injection, schedule: Q01DX005 (ip), vehicle: saline) 98 % of control.

Turning to `O=c1cc(-c2ccccc2)nc2c(Cl)cc(Cl)cn12`, the T/C was 96 % of control under setting [1], 93 % of control under setting [2] and 96 % of control under setting [3].
